Values joined by “and” are separate entries in the source; they are usually repeats but may differ in a detail not shown here. Equal values may be shown once. Where no end group is shown, it is not given here.
Tested on: MVF-PD-L1 peptide immunogen
Experiment: Immunogenicity in Balb/c mice, experiment 1 (CT26 WT): ELISA of sera vs each MVF-PD-L1 peptide immunogen
Assay type: in vivo
Conditions: for Immunogenicity (titers) 1′ Conc. 1:: Balb/c mice
Experimental: Immunogenicity of MVF-PD-L1 B-cell epitopes. New Zealand White rabbits were immunized with 1 mg of each MVF-peptide immunogens dissolved in dd H2O emulsified (1:1) in Montanide ISA 720 vehicle (Seppic) with 333 μg of N-acetylglucosamine-3yl-acetyl-1-alanyl-d-isoglutamine (nor-MDP). Rabbits were boosted with the same doses at 3-week's intervals. Blood was collected via the central auricular artery in rabbits. Blood was collected weekly (1Y+3, 2Y+1, 2Y+2,2Y+3, 3Y+1, 3Y+2 and sera tested for antibody titers by ELISA using the immunogens MVF-PD-L1 peptides. Sera (terminal) from rabbit (3Y+3) immunized with MVF-PD-1 peptide immunogens were tested individually versus the immunogen by ELISA. 200 ng/well peptide were used in duplicates to coat the ELISA plates. Titers are defined as the highest dilution of sera with an absorbance value of 0.2 after subtracting the blank.
FIGS. 5A, 5B, 5C, and 5D show the experimental scheme to test the immunization with PD-L1 in Balb/c mice. […] Balb/c mice 6-8 weeks old, were immunized with MVF-peptide immunogens emulsified in ISA 720 with nor-MDP three times and three weeks apart. Mice were immunized with MVF-PD-L1 vaccine constructs [PD-L1(36-53), PD-L1(50-67), PD-L1(95-112), PD-L1(130-147)] prior to tumor challenge. Blood was collected weekly and sera tested for antibody titers by ELISA. Two weeks after the third immunization (3Y), the mice were engrafted with CT26 WT tumor cells 10^5 per mouse Control mice were treated twice weekly with PBS as negative control and twice weekly with anti-mPD-L1 mAb (10F.9G2) as positive control starting 2 days after tumor challenge. Tumor growths were observed twice weekly and measured by calipers.
Immunogenicity of MVF-PD-L1 peptides in BALB/c mice immunized with various peptide constructs. Sera collected weekly were tittered against each individual MVF-PD-L1 peptide immunogen. The Pink bar refers to titers versus PD-L1 130 and the red bar refers to titers versus PD-1 (92-110).
In order to verify the efficacy of the PD-L1 epitope vaccines in vivo in the CT26 carcinoma cell line, Balb/c mice (10 mice/group) were immunized with 100 μg each of MVF-PD-L1 (36-53), MVF-PD-L1 (50-67), MVF-PD-L1 (95-112) and MVF-PD-L1 (130-147) emulsified with nor-MDP and Montanide 720 (1:1 ratio) SCHEME 1A (FIG. 5A). As detailed in SCHEME 1A-D (FIGS. 5A, 5B, 5C, and 5D), mice were immunized 3 times at 3 weeks intervals. […] All PD-L1 epitopes elicited high titers of PD-L1 anti-peptide antibodies by ELISA. […] We also investigated the combination of PD-1(92-110) with PD-L1-130-147.
For each peptide, vaccine antibodies were raised in New Zealand white rabbits, purchased from Charles River Laboratories (Wilmington, MA, USA). Rabbits were immunized with 1 mg of MVF chimeric peptide emulsified in Montanide ISA 720 (Seppic, Paris, France) and boosted 3 times at three week intervals. For mouse experiments, mice, 6-8 weeks old, were immunized with 0.1 mg of peptide emulsified in ISA720 (1:1 ratio). Mice were boosted with the respective doses at 3-week intervals. Blood was then collected and sera were tested for antibody titers. Sera were collected weekly and peptide vaccine antibodies were purified by affinity chromatography using a protein A/G column and the concentration was measured using Spectrophometer. All experiments were performed in accordance with the U.S. Public Health Service Policy on Humane Care and Use of Laboratory animals and approved by the Ohio State University Institutional Animals Care and Use Committee, detailed in the accepted protocol.
6-8 weeks old BALB/c mice (Charles River, Wilmington, MA) were used as standard animal models. Mouse CT26 colon carcinoma cell line was purchased from American Type Culture Collection Cells and were regularly cultured in RPMI1640 medium containing 10% FBS. CT26/HER2 cells were kindly provided by M. Penichet. Vaccines were dissolved in sterile water and emulsified in Montanide ISA 720 (1:1). […]

KLLSLIKGVIVHRLEGVEGPSLLIVYWEMEDKNIIQFVHG (KLLSLIKGVIVHRLEGVEGPSLLIVYWEMEDKNIIQFVHG-NH2) [PD-L1(36)]
Immunogenicity (titers) 1′ Conc. 1: (bleed 1Y + 3): 400
Immunogenicity (titers) 1′ Conc. 1: (bleed 2Y + 1): 1600
Immunogenicity (titers) 1′ Conc. 1: (bleed 2Y + 2): 6400
Immunogenicity (titers) 1′ Conc. 1: (bleed 2Y + 3): 16000
Immunogenicity (titers) 1′ Conc. 1: (bleed 3Y + 1): 16000
Immunogenicity (titers) 1′ Conc. 1: (bleed 3Y + 2): 16000
Immunogenicity (titers) 1′ Conc. 1: (bleed 3Y + 3): 16000
ELISA absorbance of sera (bleed 1Y + 3 (1to100), dilution 100): 0.598 and 0.583
ELISA absorbance of sera (bleed 1Y + 3 (1to100), dilution 200): 0.352 and 0.300
ELISA absorbance of sera (bleed 1Y + 3 (1to100), dilution 400): 0.212 and 0.200
ELISA absorbance of sera (bleed 1Y + 3 (1to100), dilution 800): 0.117 and 0.088
ELISA absorbance of sera (bleed 1Y + 3 (1to100), dilution 1,600): 0.063 and 0.046
ELISA absorbance of sera (bleed 1Y + 3 (1to100), dilution 3,200): 0.032 and 0.027
ELISA absorbance of sera (bleed 1Y + 3 (1to100), dilution 6,400): 0.014 and 0.010
ELISA absorbance of sera (bleed 1Y + 3 (1to100), dilution 12,800): 0.010 and 0.006
ELISA absorbance of sera (bleed 2Y + 1 (1to100), dilution 100): 1.031 and 0.901
ELISA absorbance of sera (bleed 2Y + 1 (1to100), dilution 200): 0.815 and 0.784
ELISA absorbance of sera (bleed 2Y + 1 (1to100), dilution 400): 0.601 and 0.591
ELISA absorbance of sera (bleed 2Y + 1 (1to100), dilution 800): 0.408 and 0.394
ELISA absorbance of sera (bleed 2Y + 1 (1to100), dilution 1,600): 0.273 and 0.203
ELISA absorbance of sera (bleed 2Y + 1 (1to100), dilution 3,200): 0.163 and 0.116
ELISA absorbance of sera (bleed 2Y + 1 (1to100), dilution 6,400): 0.090 and 0.067
ELISA absorbance of sera (bleed 2Y + 1 (1to100), dilution 12,800): 0.049 and 0.031
ELISA absorbance of sera (bleed 2Y + 2 (1to100), dilution 100): 1.281 and 1.251
ELISA absorbance of sera (bleed 2Y + 2 (1to100), dilution 200): 1.162 and 1.137
ELISA absorbance of sera (bleed 2Y + 2 (1to100), dilution 400): 1.033 and 1.019
ELISA absorbance of sera (bleed 2Y + 2 (1to100), dilution 800): 0.975 and 0.820
ELISA absorbance of sera (bleed 2Y + 2 (1to100), dilution 1,600): 0.691 and 0.602
ELISA absorbance of sera (bleed 2Y + 2 (1to100), dilution 3,200): 0.460 and 0.389
ELISA absorbance of sera (bleed 2Y + 2 (1to100), dilution 6,400): 0.299 and 0.248
ELISA absorbance of sera (bleed 2Y + 3 (1to1k), dilution 100): 0.855 and 0.817
ELISA absorbance of sera (bleed 2Y + 3 (1to1k), dilution 200): 0.695 and 0.612
ELISA absorbance of sera (bleed 2Y + 3 (1to1k), dilution 400): 0.530 and 0.500
ELISA absorbance of sera (bleed 2Y + 3 (1to1k), dilution 800): 0.393 and 0.359
ELISA absorbance of sera (bleed 2Y + 3 (1to1k), dilution 1,600): 0.273 and 0.257
ELISA absorbance of sera (bleed 2Y + 3 (1to1k), dilution 3,200): 0.155 and 0.146
ELISA absorbance of sera (bleed 2Y + 3 (1to1k), dilution 6,400): 0.074 and 0.049
ELISA absorbance of sera (bleed 3Y + 1 (1to1k), dilution 100): 0.966 and 0.923
ELISA absorbance of sera (bleed 3Y + 1 (1to1k), dilution 200): 0.785 and 0.691
ELISA absorbance of sera (bleed 3Y + 1 (1to1k), dilution 400): 0.599 and 0.565
ELISA absorbance of sera (bleed 3Y + 1 (1to1k), dilution 800): 0.444 and 0.406
ELISA absorbance of sera (bleed 3Y + 1 (1to1k), dilution 1,600): 0.308 and 0.291
ELISA absorbance of sera (bleed 3Y + 1 (1to1k), dilution 3,200): 0.175 and 0.165
ELISA absorbance of sera (bleed 3Y + 1 (1to1k), dilution 6,400): 0.084 and 0.056
ELISA absorbance of sera (bleed 3Y + 2 (1to1k), dilution 100): 1.202 and 1.225
ELISA absorbance of sera (bleed 3Y + 2 (1to1k), dilution 200): 0.934 and 0.949
ELISA absorbance of sera (bleed 3Y + 2 (1to1k), dilution 400): 0.658 and 0.662
ELISA absorbance of sera (bleed 3Y + 2 (1to1k), dilution 800): 0.405 and 0.424
ELISA absorbance of sera (bleed 3Y + 2 (1to1k), dilution 1,600): 0.240 and 0.228
ELISA absorbance of sera (bleed 3Y + 2 (1to1k), dilution 3,200): 0.151 and 0.130
ELISA absorbance of sera (bleed 3Y + 2 (1to1k), dilution 6,400): 0.077
ELISA absorbance of sera (bleed 3Y + 3 (1to1k), dilution 100): 1.269 and 1.387
ELISA absorbance of sera (bleed 3Y + 3 (1to1k), dilution 200): 0.919 and 1.048
ELISA absorbance of sera (bleed 3Y + 3 (1to1k), dilution 400): 0.666 and 0.772
ELISA absorbance of sera (bleed 3Y + 3 (1to1k), dilution 800): 0.418 and 0.430
ELISA absorbance of sera (bleed 3Y + 3 (1to1k), dilution 1,600): 0.246 and 0.257
ELISA absorbance of sera (bleed 3Y + 3 (1to1k), dilution 3,200): 0.081 and 0.119
ELISA absorbance of sera (bleed 3Y + 3 (1to1k), dilution 6,400): 0.025
